Measurements as given in the NIST ThermoML archive (doi:10.1021/je0498560).

Test: xn = mol fraction of the nth substance listed
Settings: Liquid

C[N+](=O)[O-] [nitromethane] + O=C=O
Settings | molar volume [m3/mol]
298 K, x2 = 0.12 | 4.93e-05
298 K, x2 = 0.238 | 4.83e-05
298 K, x2 = 0.346 | 4.76e-05
298 K, x2 = 0.457 | 4.74e-05
298 K, x2 = 0.552 | 4.74e-05
298 K, x2 = 0.678 | 4.71e-05
298 K, x2 = 0.747 | 4.77e-05
298 K, x2 = 0.81 | 4.78e-05
298 K, x2 = 0.855 | 4.87e-05
298 K, x2 = 0.876 | 4.91e-05
313 K, x2 = 0.048 | 5.88e-05
313 K, x2 = 0.119 | 5.71e-05
313 K, x2 = 0.183 | 5.56e-05
313 K, x2 = 0.254 | 5.51e-05
313 K, x2 = 0.32 | 5.45e-05
313 K, x2 = 0.385 | 5.37e-05
313 K, x2 = 0.479 | 5.32e-05
313 K, x2 = 0.546 | 5.23e-05
313 K, x2 = 0.627 | 5.09e-05
313 K, x2 = 0.727 | 4.99e-05
313 K, x2 = 0.791 | 5.08e-05

FC(F)(F)C(F)(F)C(F)(F)C(F)(F)C(F)(F)C(F)(F)F [perfluorohexane] + O=C=O
313 K
Settings | molar volume [m3/mol]
x2 = 0.146 | 0.0001867
x2 = 0.163 | 0.000187
x2 = 0.262 | 0.0001742
x2 = 0.27 | 0.0001732
x2 = 0.339 | 0.0001655
x2 = 0.424 | 0.0001511
x2 = 0.474 | 0.0001448
x2 = 0.547 | 0.0001324
x2 = 0.615 | 0.0001235
x2 = 0.665 | 0.0001165
x2 = 0.721 | 0.0001062
x2 = 0.765 | 9.7e-05
x2 = 0.776 | 9.49e-05
x2 = 0.811 | 9.03e-05
x2 = 0.836 | 9.17e-05

CC(C)O [propan-2-ol] + O=C=O
313 K
Settings | molar volume [m3/mol]
x2 = 0.018 | 7.97e-05
x2 = 0.065 | 7.88e-05
x2 = 0.133 | 7.62e-05
x2 = 0.21 | 7.45e-05
x2 = 0.3 | 7.17e-05
x2 = 0.401 | 6.85e-05
x2 = 0.51 | 6.4e-05
x2 = 0.639 | 6.06e-05
x2 = 0.725 | 5.99e-05
x2 = 0.788 | 6.01e-05

C1CCOC1 [tetrahydrofuran] + O=C=O
Settings | molar volume [m3/mol]
298 K, x2 = 0.132 | 7.08e-05
298 K, x2 = 0.228 | 6.55e-05
298 K, x2 = 0.333 | 6.46e-05
298 K, x2 = 0.451 | 6.2e-05
298 K, x2 = 0.518 | 6.08e-05
298 K, x2 = 0.624 | 5.86e-05
298 K, x2 = 0.736 | 5.64e-05
298 K, x2 = 0.83 | 5.49e-05
298 K, x2 = 0.899 | 5.43e-05
313 K, x2 = 0.098 | 7.75e-05
313 K, x2 = 0.313 | 7.09e-05
313 K, x2 = 0.398 | 6.82e-05
313 K, x2 = 0.489 | 6.53e-05
313 K, x2 = 0.576 | 6.29e-05
313 K, x2 = 0.655 | 6.23e-05
313 K, x2 = 0.733 | 6.02e-05
313 K, x2 = 0.832 | 5.72e-05
313 K, x2 = 0.89 | 6.02e-05
333 K, x2 = 0.165 | 7.45e-05
333 K, x2 = 0.26 | 7.34e-05
333 K, x2 = 0.404 | 6.87e-05
333 K, x2 = 0.539 | 6.6e-05
333 K, x2 = 0.696 | 5.84e-05
333 K, x2 = 0.808 | 6.04e-05
333 K, x2 = 0.85 | 6.29e-05
333 K, x2 = 0.893 | 7.05e-05

Cc1ccccc1 [toluene] + O=C=O
323 K
Settings | molar volume [m3/mol]
x2 = 0.091 | 0.0001014
x2 = 0.175 | 9.72e-05
x2 = 0.26 | 9.21e-05
x2 = 0.335 | 8.76e-05
x2 = 0.408 | 8.37e-05
x2 = 0.48 | 8.02e-05
x2 = 0.524 | 7.82e-05
x2 = 0.583 | 7.22e-05
x2 = 0.644 | 6.72e-05
x2 = 0.715 | 6.46e-05
x2 = 0.764 | 6.32e-05
x2 = 0.821 | 6.23e-05
x2 = 0.865 | 6.26e-05
x2 = 0.883 | 6.35e-05
